From ChEMBL document CHEMBL3124790, “Antibacterial properties and mode of action of new triaryl butene citrate compounds” (Eur J Med Chem, 2014)
Converted amounts (≈) assume the structure as drawn. The source made the active and inactive calls. The rule behind the calls is not given here.

Assays:
[1] = test system: Escherichia coli; test: Antimicrobial activity against Escherichia coli MC4100 assessed as blurred boundaries and highly altered cell walls at 5 times MIC after 5 mins by transmission electron microscopy analysis; assay type: functional, organism-based
[2] = test system: Escherichia coli; test: Antimicrobial activity against Escherichia coli MC4100 assessed as damage of inner or outer membranes at 5 times MIC after 5 mins by transmission electron microscopy analysis; assay type: functional, organism-based
[3] = test system: Listeria ivanovii; test: Antimicrobial activity against Listeria ivanovii HPB20 assessed as appearance of swollen and severely damaged morphology at 5 times MIC after 5 mins by transmission electron microscopy analysis; assay type: functional
[4] = test system: Listeria ivanovii; test: Antimicrobial activity against Listeria ivanovii HPB20 assessed as loss of integrity at 5 times MIC after 5 mins by transmission electron microscopy analysis; assay type: functional
[5] = test system: Listeria ivanovii; test: Antimicrobial activity against Listeria ivanovii HPB20 assessed as condensed and localized intracellular content at 5 times MIC after 5 mins by transmission electron microscopy analysis; assay type: functional, cell-based
[6] = test system: Listeria ivanovii; test: Antimicrobial activity against Listeria ivanovii HPB28 after 24 hrs by polystyrene micro-assay; assay type: functional; settings: HPB28, 24 h
[7] = test system: Listeria monocytogenes; test: Antimicrobial activity against Listeria monocytogenes LSD 532 after 24 hrs by polystyrene micro-assay; assay type: functional; settings: LSD 532, 24 h
[8] = test system: Listeria monocytogenes; test: Antimicrobial activity against Listeria monocytogenes LMA 1045 after 24 hrs by polystyrene micro-assay; assay type: functional; settings: LMA 1045, 24 h
[9] = test system: Enterococcus faecalis; test: Antimicrobial activity against Enterococcus faecalis ATCC 27275 after 24 hrs by polystyrene micro-assay; assay type: functional; settings: ATCC 27275, 24 h
[10] = test system: Staphylococcus aureus; test: Antimicrobial activity against Staphylococcus aureus ATCC 6538 after 24 hrs by polystyrene micro-assay; assay type: functional; settings: ATCC 6538, 24 h
[11] = test system: Escherichia coli; test: Antimicrobial activity against Escherichia coli MC4100 after 24 hrs by polystyrene micro-assay; assay type: functional; settings: MC4100, 24 h
[12] = test system: Escherichia coli; test: Antimicrobial activity against Escherichia coli ATCC 11229 after 24 hrs by polystyrene micro-assay; assay type: functional; settings: ATCC 11229, 24 h
[13] = test system: Pseudomonas aeruginosa; test: Antimicrobial activity against Pseudomonas aeruginosa ATCC 15442 after 24 hrs by polystyrene micro-assay; assay type: functional; settings: ATCC 15442, 24 h
[14] = test system: Salmonella enterica subsp. enterica; test: Antimicrobial activity against Salmonella enterica ATCC 14028 after 24 hrs by polystyrene micro-assay; assay type: functional; settings: ATCC 14028, 24 h
[15] = Hemolytic activity in erythrocytes (unknown origin) after 1 hr; assay type: ADME, cell-based, Erythrocyte
[16] = test system: Listeria monocytogenes; test: Antimicrobial activity against Listeria monocytogenes assessed as induction of Na+ efflux assessed per mg of cell dry weight at 2 ug/ml after 30 mins by spectrometry analysis; assay type: functional
[17] = test system: Listeria monocytogenes; test: Antimicrobial activity against Listeria monocytogenes assessed as induction of K+ efflux assessed per mg of cell dry weight at 2 ug/ml after 30 mins by spectrometry analysis; assay type: functional
[18] = test system: Escherichia coli; test: Antimicrobial activity against Escherichia coli MC4100 assessed as uniform electron density of cytoplasm and formation of mesosome-like structure at 5 times MIC after 5 mins by transmission electron microscopy analysis; assay type: functional, organism-based
[19] = test system: Listeria monocytogenes; test: Antimicrobial activity against Listeria monocytogenes assessed as induction of K+ efflux assessed per mg of cell dry weight at MIC after 30 mins by spectrometry analysis; assay type: functional
[20] = test system: Listeria monocytogenes; test: Antimicrobial activity against Listeria monocytogenes assessed as induction of K+ efflux assessed per mg of cell dry weight at 2 to 5 times MIC after 30 mins by spectrometry analysis; assay type: functional
[21] = test system: Listeria monocytogenes; test: Antimicrobial activity against Listeria monocytogenes assessed as induction of Na+ efflux assessed per mg of cell dry weight at 5 times MIC after 30 mins by spectrometry analysis; assay type: functional

Row | MIC [6] | MIC [7] | MIC [8] | MIC [9] | MIC [10] | MIC [11] | MIC [12] | MIC [13] | MIC [14] | SMILES | Activity [1] | Activity [2] | Activity [3] | Activity [4] | HC50 at 1 h [15] | also measured
1 | 25 µM (≈ 12.1 µg/mL) | 31 µM (≈ 15 µg/mL) | 62 µM (≈ 30.1 µg/mL) | 40 µM (≈ 19.4 µg/mL) | 31 µM (≈ 15 µg/mL) | 100 µM (≈ 48.5 µg/mL) | 100 µM (≈ 48.5 µg/mL) | 2500 µM (≈ 1210 µg/mL) | 2500 µM (≈ 1210 µg/mL) | CN(C)CCCOc1ccc(C(=C2CCc3ccccc32)c2ccc(OCCCN(C)C)cc2)cc1 | Active | Active | Active | Active | 68.6 µM | Activity [5]: Active
2 |  |  |  |  |  |  |  |  |  | C=C(NC(=O)[C@@H](NC(=O)[C@H](Cc1cnc[nH]1)NC(=O)[C@@H](NC(=O)[C@H](CO)NC(=O)[C@@H]1CSC(C)[C@@H]2NC(=O)[C@H](C)NC(=O)[C@@H](NC(=O)N(CCCCN)C(=O)[C@H](CCCCN)NC(=O)[C@@H](CCSC)NC(=O)[C@H](CC(N)=O)NC(=O)[C@@H]3CSC(C)[C@H](NC(=O)[C@H](CCCCN)NC(=O)[C@@H]4CSC(C)[C@H](NC(=O)[C@@H]5CSC[C@H](NC(=O)/C(=C/C)NC(=O)[C@@H](N)[C@@H](C)CC)C(=O)N[C@@H](CC(C)C)C(=O)NC(=C)C(=O)N[C@@H](CC(C)C)C(=O)N5)C(=O)N5CCC[C@H]5C(=O)NCC(=O)N4)C(=O)NCC(=O)N[C@@H](C)C(=O)N[C@@H](CC(C)C)C(=O)N[C@H](CCSC)C(=O)NCC(=O)N3)C(C)SC[C@H](NC2=O)C(=O)N[C@@H](Cc2cnc[nH]2)C(=O)N1)[C@@H](C)CC)C(C)C)C(=O)N[C@@H](CCCCN)C(=O)O (stereo not given in full) |  |  |  |  |  | Activity [16]: 635.96 nmol; Activity [17]: 361.79 nmol
3 | 25 µM | 31 µM | 62 µM | 80 µM | 31 µM | 50 µM | 50 µM | > 5000 µM | 1250 µM | CCC(=C(c1ccc(OCCCN(C)C)cc1)c1ccc(OCCCN(C)C)cc1)c1ccccc1.O=C(O)CC(O)(CC(=O)O)C(=O)O | Active | Active | Active | Active | 67.1 µM | Activity [18]: Active; Activity [19]: 183.74 nmol; Activity [20]: 344 nmol; Activity [21]: 68%
